According to ChEMBL document CHEMBL3352172, “Discovery of S-adenosyl-L-homocysteine hydrolase inhibitors based on non-adenosine analogs” (Bioorg Med Chem Lett, 2014):

Biological target: Adenosylhomocysteinase (Homo sapiens, UniProt P23526)
Experiment: Inhibition of human recombinant S-adenosyl-L-homocysteine hydrolase assessed as AdoHcy hydrolysis activity by HPLC analysis

Sequence of Adenosylhomocysteinase (P23526 whole entry): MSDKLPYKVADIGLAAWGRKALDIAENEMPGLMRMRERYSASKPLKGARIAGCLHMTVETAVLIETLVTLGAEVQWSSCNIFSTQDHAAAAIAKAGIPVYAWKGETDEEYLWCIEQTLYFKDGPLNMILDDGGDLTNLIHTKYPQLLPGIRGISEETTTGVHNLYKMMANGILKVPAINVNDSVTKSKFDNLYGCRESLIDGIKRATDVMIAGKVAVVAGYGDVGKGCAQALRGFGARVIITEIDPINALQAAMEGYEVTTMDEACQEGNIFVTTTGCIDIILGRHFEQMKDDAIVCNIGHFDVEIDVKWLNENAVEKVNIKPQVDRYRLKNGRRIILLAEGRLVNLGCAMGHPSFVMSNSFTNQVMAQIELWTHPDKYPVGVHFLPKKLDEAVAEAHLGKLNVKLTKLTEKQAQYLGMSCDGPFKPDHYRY

Structure (SMILES) | IC50 [µM]
CN(C(=O)CN(CC(=O)NC1CCNC1)c1cc(Cl)ccc1Oc1ccc(Cl)cc1)C1Cc2ccccc2C1 (configuration not stated) | 1.5
O=C(CN(CC(=O)NC1Cc2ccccc2C1)c1cc(Cl)ccc1Oc1ccc(Cl)cc1)NCCN1CCCC1 | 11.4
CN(C(=O)CN(CC(=O)NCCN1CCCC1)c1cc(Cl)ccc1Oc1ccc(Cl)cc1)C1CCNCC1 | > 100
O=C(CN(CC(=O)N1Cc2ccccc2C1)c1cc(Cl)ccc1Oc1ccc(Cl)cc1)NCCN1CCCC1 | > 100
O=C(CN(CC(=O)N1CCc2ccccc2C1)c1cc(Cl)ccc1Oc1ccc(Cl)cc1)NCCN1CCCC1 | 17

Stronger by IC50, values ahead:

IC50 [µM] | Structure (SMILES)
1.2 | CN(C(=O)CN(CC(=O)NC1CCCNC1)c1cc(Cl)ccc1Oc1ccc(Cl)cc1)C1Cc2ccccc2C1 (configuration not stated)
0.97 | O=C(CN(CC(=O)N1CCC(c2ccccc2)CC1)c1cc(Cl)ccc1Oc1ccc(Cl)cc1)NCCN1CCCC1
